Test results: patent US11426397B2, “Piperidinyl- and piperazinyl-substituted heteroaromatic carboxamides as modulators of GPR6” (TAKEDA PHARMACEUTICAL COMPANY LIMITED, priority 2017, dated 2022)

Target: T1, GPR6 receptor expressed in CHO-K1 cells (Homo sapiens, UniProt P46095)
T1 construct: expressed in transfected cells
Test: In vitro inhibition of cAMP (EC50), cell-based HTRF cAMP assay
Conditions: inhibition of constitutive cAMP activity of GPR6 in CHO-K1 cells
Method in brief: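 Cellular cAMP measured by Lance Ultra HTRF (Eu-cAMP tracer, ULight anti-cAMP), with EC50 fitted by four-parameter logistic. Test compounds sat on cells 45 min, 37 °C, in pH 7.4 Ringer's with 300 μM IBMX and 0.5% BSA; GPR6 in CHO-K1 induced beforehand by doxycycline, 2 μg/mL, 20 h.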

T1 sequence (P46095 whole entry): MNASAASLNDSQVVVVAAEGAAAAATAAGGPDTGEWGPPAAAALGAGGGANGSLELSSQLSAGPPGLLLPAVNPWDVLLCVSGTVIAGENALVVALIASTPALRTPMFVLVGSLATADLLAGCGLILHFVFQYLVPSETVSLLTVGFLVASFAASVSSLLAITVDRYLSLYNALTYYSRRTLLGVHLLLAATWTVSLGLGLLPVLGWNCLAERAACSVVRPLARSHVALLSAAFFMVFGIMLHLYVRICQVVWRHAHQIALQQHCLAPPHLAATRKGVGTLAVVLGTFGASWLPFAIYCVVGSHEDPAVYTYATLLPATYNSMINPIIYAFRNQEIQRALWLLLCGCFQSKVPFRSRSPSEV

Cc1ccc(C(=O)Nc2cc(C#N)ccc2N2CCC(Oc3ccc(F)cc3F)CC2)nn1 [Example 146, N-(5-cyano-2-(4-(2,4-difluorophenoxy)piperidin-1-yl)phenyl)-6-methylpyridazine-3-carboxamide]
pEC50, in vitro inhibition of cAMP: 6.6

N#Cc1ccc(N2CCC(Oc3ccc(F)cc3F)CC2)c(NC(=O)c2ncc(F)cc2F)c1 [Example 49, N-(5-cyano-2-(4-(2,4-difluorophenoxy)piperidin-1-yl)phenyl)-3,5-difluoropicolinamide]
pEC50, in vitro inhibition of cAMP: 6.5

Cc1cccc(C(=O)Nc2cc(C#N)cnc2N2CCC(Oc3ccc(F)cc3F)CC2)n1 [Example 54, N-(5-cyano-2-(4-(2,4-difluorophenoxy)piperidin-1-yl)pyridin-3-yl)-6-methylpicolinamide]
pEC50, in vitro inhibition of cAMP: 7.4

COc1c(Cl)cc(Cl)cc1C(=O)Nc1cc(C#N)ccc1N1CCC(Oc2ccc(F)cc2F)CC1 [Example 234, 3,5-dichloro-N-(5-cyano-2-(4-(2,4-difluorophenoxy)piperidin-1-yl)phenyl)-2-methoxybenzamide]
pEC50, in vitro inhibition of cAMP: <4.5

COc1ccc(F)cc1C(=O)Nc1cc(C#N)ccc1N1CCC(Oc2ccc(F)cc2F)CC1 [Example 210, N-(5-cyano-2-(4-(2,4-difluorophenoxy)piperidin-1-yl)phenyl)-5-fluoro-2-methoxybenzamide]
pEC50, in vitro inhibition of cAMP: 7.3

COc1ccccc1CN1CCN(c2ccc(C#N)cc2NC(=O)c2cccnc2OC)CC1 [Example 247, N-(5-cyano-2-(4-(2-methoxybenzyl)piperazin-1-yl)phenyl)-2-methoxynicotinamide]
pEC50, in vitro inhibition of cAMP: 5.9

COc1ncccc1C(=O)Nc1cc(C#N)ccc1N1CCN(Cc2ncc(F)cc2F)CC1 [Example 290]
pEC50, in vitro inhibition of cAMP: 6.5

COc1ncccc1C(=O)Nc1cnc(C(N)=O)cc1N1CCC(Oc2ccc(F)cc2F)CC1 [Example 269, 4-(4-(2,4-difluorophenoxy)piperidin-1-yl)-5-(2-methoxynicotinamido)picolinamide]
pEC50, in vitro inhibition of cAMP: 6.9

Cc1cc(C(=O)Nc2cc(C#N)ccc2N2CCC(Oc3ccc(F)cc3F)CC2)no1 [Example 41, N-(5-cyano-2-(4-(2,4-difluorophenoxy)piperidin-1-yl)phenyl)-5-methylisoxazole-3-carboxamide]
pEC50, in vitro inhibition of cAMP: 6.4

COc1cc(F)ccc1C(=O)Nc1cc(C#N)cnc1N1CCC(Oc2ccc(F)cc2F)CC1 [Example 56, N-(5-cyano-2-(4-(2,4-difluorobenoxy)piperidin-1-yl)pyridin-3-yl)-4-fluoro-2-methoxybenzamide]
pEC50, in vitro inhibition of cAMP: 7.2

COc1c(C(=O)Nc2ccc(C#N)nc2N2CCC(Oc3ccc(F)cc3F)CC2)cnn1C [Example 256, N-(6-cyano-2-(4-(2,4-difluorophenoxy)piperidin-1-yl)pyridin-3-yl)-5-methoxy-1-methyl-H-pyrazole-4-carboxamide]
pEC50, in vitro inhibition of cAMP: 6.7

N#Cc1ccc(N2CCC(Oc3ccc(F)cc3F)CC2)c(NC(=O)c2cccc3c2OCC3)c1 [Example 27, N-(5-cyano-2-(4-(2,4-difluorophenoxy)piperidin-1-yl)phenyl)-2,3-dihydrobenzofuran-7-carboxamide]
pEC50, in vitro inhibition of cAMP: 7.4

COc1c(Cl)cccc1C(=O)Nc1cc(C#N)ccc1N1CCC(Oc2ccc(F)cc2F)CC1 [Example 222, 3-chloro-N-(5-cyano-2-(4-(2,4-difluorophenoxy)piperidin-1-yl)phenyl)-2-methoxybenzamide]
pEC50, in vitro inhibition of cAMP: 6.7

COc1nn(C)cc1C(=O)Nc1cc(C#N)cnc1N1CCN(Cc2cc(C#N)ccc2F)CC1 [Example 151, N-(5-cyano-2-(4-(5-cyano-2-fluorobenzyl)piperazin-1-yl)pyridin-3-yl)-3-methoxy-1-methyl-1H-pyrazole-4-carboxamide]
pEC50, in vitro inhibition of cAMP: 6.3

COc1nc2c(cc1C(=O)Nc1cc(C#N)ccc1N1CCC(Oc3ccc(F)cc3F)CC1)CCC2 [Example 196, N-(5-cyano-2-(4-(2,4-difluorophenoxy)piperidin-1-yl)phenyl)-2-methoxy-6,7-dihydro-5H-cyclopenta[b]pyridine-3-carboxamide]
pEC50, in vitro inhibition of cAMP: 6.7

COCc1cc(N2CCC(Oc3ccc(F)cc3F)CC2)c(NC(=O)c2cccnc2OC)cn1 [Example 268]
pEC50, in vitro inhibition of cAMP: 6.9

N#Cc1ccc(N2CCC(Oc3ccc(F)cc3F)CC2)c(NC(=O)c2cccn(C(F)F)c2=O)c1 [Example 277, N-(5-cyano-2-(4-(2,4-difluorophenoxy)piperidin-1-yl)phenyl)-1-(difluoromethyl)-2-oxo-1,2-dihydropyridine-3-carboxamide]
pEC50, in vitro inhibition of cAMP: 6.5

COc1cscc1C(=O)Nc1cc(C#N)ccc1N1CCC(Oc2ccc(F)cc2F)CC1 [Example 47, N-(5-cyano-2-(4-(2,4-difluorophenoxy)piperidin-1-yl)phenyl)-4-methoxythiophene-3-carboxamide]
pEC50, in vitro inhibition of cAMP: 7.2

Cn1cccc(C(=O)Nc2cc(S(=O)(=O)N3CCOCC3)cnc2N2CCC(Oc3ccc(F)cc3F)CC2)c1=O [Example 279, N-(2-(4-(2,4-difluorophenoxy)piperidin-1-yl)-5-(morpholinosulfonyl)pyridin-3-yl)-1-methyl-2-oxo-1,2-dihydropyridine-3-carboxamide]
pEC50, in vitro inhibition of cAMP: 7.0

Cc1cncc(C(=O)Nc2cc(C#N)ccc2N2CCC(Oc3ccc(F)cc3F)CC2)n1 [Example 130, N-(5-cyano-2-(4-(2,4-difluorophenoxy)piperidin-1-yl)phenyl)-6-methylpyrazine-2-carboxamide]
pEC50, in vitro inhibition of cAMP: 7.1

Cc1nc(C(=O)Nc2cc(C#N)ccc2N2CCC(Oc3ccc(F)cc3F)CC2)c(C)o1 [Example 110, N-(5-cyano-2-(4-(2,4-difluorophenoxy)piperidin-1-yl)phenyl)-2,5-dimethyloxazole-4-carboxamide]
pEC50, in vitro inhibition of cAMP: 6.3

COc1cncc(C(=O)Nc2cc(C#N)ccc2N2CCC(Oc3ccc(F)cc3F)CC2)n1 [Example 129, N-(5-cyano-2-(4-(2,4-difluorophenoxy)piperidin-1-yl)phenyl)-6-methoxypyrazine-2-carboxamide]
pEC50, in vitro inhibition of cAMP: 7.2

COc1c(C)ccc(C)c1C(=O)Nc1cc(C#N)ccc1N1CCC(Oc2ccc(F)cc2F)CC1 [Example 214, N-(5-cyano-2-(4-(2,4-difluorophenoxy)piperidin-1-yl)phenyl)-2-methoxy-3,6-dimethylbenzamide]
pEC50, in vitro inhibition of cAMP: 5.5

COc1ncc(NC(=O)c2ccc(C)nc2OC)c(N2CCC(Oc3ccc(F)cc3F)CC2)n1 [Example 23, N-(4-(4-(2,4-difluorophenoxy)piperidin-1-yl)-2-methoxypyrimidin-5-yl)-2-methoxy-6-methylnicotinamide]
pEC50, in vitro inhibition of cAMP: 6.3

COc1ccc(Cl)c(OC)c1C(=O)Nc1cc(C#N)ccc1N1CCC(Oc2ccc(F)cc2F)CC1 [Example 212, 3-chloro-N-(5-cyano-2-(4-(2,4-difluorophenoxy)piperidin-1-yl)phenyl)-2,6-dimethoxybenzamide]
pEC50, in vitro inhibition of cAMP: <4.5

COc1ncccc1C(=O)Nc1cc(C#N)ccc1N1CCN(S(=O)(=O)c2ccc(F)cc2)CC1 [Example 287, N-(5-cyano-2-(4-((4-fluorophenyl)sulfonyl)piperazin-1-yl)phenyl)-2-methoxynicotinamide]
pEC50, in vitro inhibition of cAMP: 6.2

COCCCn1cccc(C(=O)Nc2cc(C#N)ccc2N2CCC(Oc3ccc(F)cc3F)CC2)c1=O [Example 199]
pEC50, in vitro inhibition of cAMP: 5.9

COc1ncccc1C(=O)Nc1cc(C#N)c(C#N)cc1N1CCC(Oc2ccc(F)cc2F)CC1 [Example 271]
pEC50, in vitro inhibition of cAMP: 7.1

COc1ncccc1C(=O)Nc1cc(C(=O)N(C)C)c(C#N)cc1N1CCC(Oc2ccc(F)cc2F)CC1 [Example 272]
pEC50, in vitro inhibition of cAMP: 7.4

Cn1cccc(C(=O)Nc2cc(C#N)ccc2N2CCC(C(F)(F)c3cc(Cl)ccc3F)CC2)c1=O [Example 89, N-(2-(4-((5-chloro-2-fluorophenyl)difluoromethyl)piperidin-1-yl)-5-cyanophenyl)-1-methyl-2-oxo-1,2-dihydropyridine-3-carboxamide]
pEC50, in vitro inhibition of cAMP: 6.3

COc1ncccc1C(=O)Nc1cc(C#N)ccc1N1CCN(Cc2cccc(F)c2)CC1 [Example 240, N-(5-cyano-2-(4-(3-fluorobenzyl)piperazin-1-yl)phenyl)-2-methoxynicotinamide]
pEC50, in vitro inhibition of cAMP: 6.8

Cc1cn2c(=O)c(C(=O)Nc3cc(C#N)ccc3N3CCC(Oc4ccc(F)cc4F)CC3)cnc2s1 [Example 217, N-(5-cyano-2-(4-(2,4-difluorophenoxy)piperidin-1-yl)phenyl)-2-methyl-5-oxo-5H-thiazolo[3,2-a]pyrimidine-6-carboxamide]
pEC50, in vitro inhibition of cAMP: 6.7

N#Cc1ccc(N2CCC(Oc3ccc(F)cc3F)CC2)c(NC(=O)c2cnccn2)c1 [Example 44, N-(5-cyano-2-(4-(2,4-difluorophenoxy)piperidin-1-yl)phenyl)pyrazine-2-carboxamide]
pEC50, in vitro inhibition of cAMP: 6.2

Cc1csc2ncc(C(=O)Nc3cc(C#N)ccc3N3CCC(Oc4ccc(F)cc4F)CC3)c(=O)n12 [Example 218, N-(5-cyano-2-(4-(2,4-difluorophenoxy)piperidin-1-yl)phenyl)-3-methyl-5-oxo-5H-thiazolo[3,2-a]pyrimidine-6-carboxamide]
pEC50, in vitro inhibition of cAMP: 6.8

COc1ncccc1C(=O)Nc1cc(C#N)ccc1N1CCN(Cc2cccs2)CC1 [Example 72, N-(5-cyano-2-(4-(thiophen-2-ylmethyl)piperazin-1-yl)phenyl)-2-methoxynicotinamide]
pEC50, in vitro inhibition of cAMP: 6.6

Cn1c(-c2ccccc2)ncc(C(=O)Nc2cc(C#N)ccc2N2CCC(Oc3ccc(F)cc3F)CC2)c1=O [Example 183, N-(5-cyano-2-(4-(2,4-difluorophenoxy)piperidin-1-yl)phenyl)-1-methyl-6-oxo-2-phenyl-1,6-dihydropyrimidine-5-carboxamide]
pEC50, in vitro inhibition of cAMP: 5.9
